# Target: T1, CD73 (Homo sapiens, UniProt P21589)
# T1 sequence (P21589 27-549): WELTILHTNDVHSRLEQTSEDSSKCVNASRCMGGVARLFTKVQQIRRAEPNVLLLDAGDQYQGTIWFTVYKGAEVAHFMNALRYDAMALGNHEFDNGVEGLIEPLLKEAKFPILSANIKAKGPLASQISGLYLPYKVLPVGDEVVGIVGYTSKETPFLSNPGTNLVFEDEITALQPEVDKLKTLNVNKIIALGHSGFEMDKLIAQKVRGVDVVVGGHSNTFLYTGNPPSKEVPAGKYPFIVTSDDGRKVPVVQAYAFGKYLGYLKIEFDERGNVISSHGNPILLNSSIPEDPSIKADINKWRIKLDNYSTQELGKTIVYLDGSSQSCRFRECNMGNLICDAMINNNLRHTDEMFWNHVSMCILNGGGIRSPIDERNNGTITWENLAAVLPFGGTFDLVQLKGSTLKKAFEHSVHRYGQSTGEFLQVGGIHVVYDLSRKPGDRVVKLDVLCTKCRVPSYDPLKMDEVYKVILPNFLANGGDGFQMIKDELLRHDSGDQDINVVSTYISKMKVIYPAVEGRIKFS
# Test: Biochemical Assay: inhibition of CD73 activity (AMP hydrolysis, Malachite Green readout)
# Settings: CD73 0.3208 nM, AMP 15 μM, 25 mM Tris-HCl pH 7.4, 10 min reaction at RT; read-out: CD73_Biochem
# Method: Example A1: Biochemical Assay
# Assay Reaction Conditions
# • Assay Volume: 70 μl • Reaction Volume: 50 μl • CD73: 0.3208 nM • AMP: 15 μM • Assay Buffer: 2 5 mM Tris-HCL, pH 7.4, 0.01% Brij-35, 0.01% BSA, 5 mM MgCl2 Assay Procedure:
# Made dose titration of testing compounds in assay buffer, 10 points ½ log titrations in duplicates starting at 100 μM.
# Added 25 μl of CD73 to each well for a final concentration of 320 pM.
# Incubated at RT for 15 min.
# Added 25 μl of AMP to each well for a final concentration of 15 μM.
# Incubated at RT for 10 min.
# Added 10 μl of Malachite Green Reagent A, incubate at RT for 10 min.
# Added 10 μl of Malachite Green Reagent B, incubate at RT for 45 min.
# Read the Absorbance on Envision plate reader using excitation filter: Cy5 […].
# The ability of the compounds disclosed herein to inhibit CD73 activity was quantified and the respective IC50 values were determined. Table 2 provides the biochemical IC50 values of compounds disclosed herein.
smiles,measurement,value
"COCCOCC(COCc1nnn[nH]1)(OC[C@H]1O[C@@H](n2ncc3c(NC4CCCC4)nc(Cl)nc32)[C@H](O)[C@@H]1O)P(=O)(O)O (single isomer, unassigned) [Example 2]",IC50,≤ 10 nM
